Laboratory results taken from patent US20250255867A1 (Kadmon Corporation, LLC, priority 2022, published 2025).
Where “and” joins values, the source holds several entries; their conditions need not be identical. Equal entries are not always repeated.

Tests used:
patients with cGVHD = assay: Example 1: Global Severity Rating and participant self-reported symptom activity; type: in vivo, human
Procedure: Maximal Improvement from Baseline in Global Severity Rating (GSR) by Clinician-reported cGVHD Assessment. The GSR assessment was performed by asking the participants to rate their disease severity of cGVHD symptoms on a 0 to 10-point numeric rating scale, where score 0 indicated ‘not at all severe cGVHD symptoms’ and score 10 indicated ‘most severe cGVHD symptoms possible’. The response was defined using the scores from 9 organs: skin, eyes, mouth, esophagus, upper gastrointestinal (GI) track, lower GI tract, liver, lungs, and joints and fascia plus GSR. End of treatment (EOT) visit was performed within 3 days after the participant's last dose of study drug. Baseline value was defined as valid and last non-missing value obtained within 28 days prior to participant receiving first study medication. […] Analysis was performed on mITT population.
Number of Participants With Maximal Improvement From Baseline in Symptom Activity by cGVHD Activity Assessment Participant Self-Report. cGVHD symptom severity was self-reported by participants. Participants were asked to rate their disease symptom severity over the last week on the following questions: skin itching at its worst, moth dryness at its worst, mouth pain at its worst, mouth sensitivity at its worst, main compliant on eyes, symptom severity on eyes. The severity rating was done on a 0 to 10-point numeric rating scare, where score 0 indicated ‘not at all severe cGVHD symptoms’ and score 10 indicated ‘most severe cGVHD symptoms possible’. EOT visit was performed within 3 days after the participant's last dose of study drug. Baseline value was defined as valid and last non-missing value obtained within 28 days prior to participant receiving first study medication. […] Analysis was performed on mITT population.

subjects with BOS = assay: Example 3: Lee Symptom Scale lung score in BOS; type: in vivo, human
From the text: Following the methodology used for the LSS, we identified a 10-point difference (half a standard deviation from baseline scores) as being a clinically meaningful organ-specific change in this dataset. (Lee S et al. Development and validation of a scale to measure symptoms of chronic graft-versus-host disease. Biol Blood Marrow Transplant 2002; 8 (8): 444-452; Teh C et al. Reliability and Validity of the Modified 7-Day Lee Chronic Graft-versus-Host Disease Symptom Scale. Biol Blood Marrow Transplant 2020; 26 (3): 562-567.) Forty subjects (68%) experienced a clinically meaningful improvement (10-point reduction) in the LSS lung score.

[1] = Example 3: respiratory infections and overall survival; type: in vivo
From the text: The median age at enrollment was 42.5 years (range, 26-77). Allogeneic HCT was predominantly performed with myeloablative conditioning (n=44, 75%) and peripheral blood stem cells (n=54, 92%) from an HLA-matched donor (n=53, 90%). The median time from cGVHD diagnosis to enrollment was 22 months (range, 1-161). […] Most subjects (n=39, 66%) had at least 4 organs involved at enrollment. The median number of prior lines of systemic therapy was 3 (range, 1-6). Overall cGVHD response to the line of systemic therapy prior to enrollment was partial response (n=12, 20%), stable disease (n=25, 42%), progressive disease (n=12, 20%) or unknown (n=10, 17%). […] At the time of analysis, 16 subjects remained on therapy. […] Thirty-one subjects (53%) experienced at least 1 respiratory infection (any grade) while on treatment, with 11 subjects experiencing 32 episodes. These infections were categorized as upper respiratory infections (n=33) or pneumonia (n=13). […] With a median follow-up among survivors of 27 months (range, 1.8-55), the 2-year overall survival is 82% (95% CI: 70, 90).

CC(C)NC(=O)COc1cccc(-c2nc(Nc3ccc4[nH]ncc4c3)c3ccccc3n2)c1 [Belumosudil, 2-{3-[4-(1H-indazol-5-ylamino)-2-quinazolinyl]phenoxy}-N-(propan-2-yl) acetamide]
Maximal improvement from baseline in GSR of 0 (patients with cGVHD; Cohort 1 200 mg QD): 5 (29%) participants
Maximal improvement from baseline in GSR of 1 (patients with cGVHD; Cohort 1 200 mg QD): 0 (0%) participants
Maximal improvement from baseline in GSR of 3 (patients with cGVHD; Cohort 1 200 mg QD): 0 (0%) participants
Maximal improvement from baseline in GSR of −1 (patients with cGVHD; Cohort 1 200 mg QD): 1 (6%) participants
Maximal improvement from baseline in GSR of −2 (patients with cGVHD; Cohort 1 200 mg QD): 2 (12%) participants
Maximal improvement from baseline in GSR of −4 (patients with cGVHD; Cohort 1 200 mg QD): 2 (12%) participants
Maximal improvement from baseline in GSR of −5 (patients with cGVHD; Cohort 1 200 mg QD): 2 (12%) participants
Maximal improvement from baseline in GSR of −6 (patients with cGVHD; Cohort 1 200 mg QD): 0 (0%) participants
Maximal improvement from baseline in GSR of −7 (patients with cGVHD; Cohort 1 200 mg QD): 0 (0%) participants
Maximal improvement in self-reported symptom activity of 0 (patients with cGVHD; Cohort 1 200 mg QD): 1 participants
Maximal improvement in self-reported symptom activity of 1 (patients with cGVHD; Cohort 1 200 mg QD): 0 participants
Maximal improvement in self-reported symptom activity of 2 (patients with cGVHD; Cohort 1 200 mg QD): 0 participants
Maximal improvement in self-reported symptom activity of 4 (patients with cGVHD; Cohort 1 200 mg QD): 1 participants
Maximal improvement in self-reported symptom activity of −1 (patients with cGVHD; Cohort 1 200 mg QD): 2 participants
Maximal improvement in self-reported symptom activity of −2 (patients with cGVHD; Cohort 1 200 mg QD): 2 participants
Maximal improvement in self-reported symptom activity of −3 (patients with cGVHD; Cohort 1 200 mg QD): 2 participants
Maximal improvement in self-reported symptom activity of −4 (patients with cGVHD; Cohort 1 200 mg QD): 2 participants
Maximal improvement in self-reported symptom activity of −5 (patients with cGVHD; Cohort 1 200 mg QD): 2 participants
Maximal improvement in self-reported symptom activity of −6 (patients with cGVHD; Cohort 1 200 mg QD): 0 participants
Maximal improvement in self-reported symptom activity of −7 (patients with cGVHD; Cohort 1 200 mg QD): 3 participants
Maximal improvement in self-reported symptom activity of −8 (patients with cGVHD; Cohort 1 200 mg QD): 0 participants
Maximal improvement from baseline in GSR of 0 (patients with cGVHD; Cohort 2 200 mg BID): 4 (25%) participants
Maximal improvement from baseline in GSR of 1 (patients with cGVHD; Cohort 2 200 mg BID): 1 (6%) participants
Maximal improvement from baseline in GSR of 3 (patients with cGVHD; Cohort 2 200 mg BID): 1 (6%) participants
Maximal improvement from baseline in GSR of −1 (patients with cGVHD; Cohort 2 200 mg BID): 2 (13%) participants
Maximal improvement from baseline in GSR of −2 (patients with cGVHD; Cohort 2 200 mg BID): 4 (25%) participants
Maximal improvement from baseline in GSR of −3 (patients with cGVHD; Cohort 2 200 mg BID): 0 (0%) participants
Maximal improvement from baseline in GSR of −4 (patients with cGVHD; Cohort 2 200 mg BID): 0 (0%) participants
Maximal improvement from baseline in GSR of −5 (patients with cGVHD; Cohort 2 200 mg BID): 2 (13%) participants
Maximal improvement from baseline in GSR of −6 (patients with cGVHD; Cohort 2 200 mg BID): 2 (13%) participants
Maximal improvement from baseline in GSR of −7 (patients with cGVHD; Cohort 2 200 mg BID): 0 (0%) participants
Maximal improvement in self-reported symptom activity of 0 (patients with cGVHD; Cohort 2 200 mg BID): 1 participants
Maximal improvement in self-reported symptom activity of 1 (patients with cGVHD; Cohort 2 200 mg BID): 0 participants
Maximal improvement in self-reported symptom activity of 2 (patients with cGVHD; Cohort 2 200 mg BID): 1 participants
Maximal improvement in self-reported symptom activity of 4 (patients with cGVHD; Cohort 2 200 mg BID): 0 participants
Maximal improvement in self-reported symptom activity of −1 (patients with cGVHD; Cohort 2 200 mg BID): 2 participants
Maximal improvement in self-reported symptom activity of −2 (patients with cGVHD; Cohort 2 200 mg BID): 3 participants
Maximal improvement in self-reported symptom activity of −3 (patients with cGVHD; Cohort 2 200 mg BID): 2 participants
Maximal improvement in self-reported symptom activity of −4 (patients with cGVHD; Cohort 2 200 mg BID): 2 participants
Maximal improvement in self-reported symptom activity of −5 (patients with cGVHD; Cohort 2 200 mg BID): 0 participants
Maximal improvement in self-reported symptom activity of −6 (patients with cGVHD; Cohort 2 200 mg BID): 1 participants
Maximal improvement in self-reported symptom activity of −7 (patients with cGVHD; Cohort 2 200 mg BID): 2 participants
Maximal improvement in self-reported symptom activity of −8 (patients with cGVHD; Cohort 2 200 mg BID): 0 participants
Maximal improvement from baseline in GSR of 0 (patients with cGVHD; Cohort 3 400 mg QD): 3 (14%) participants
Maximal improvement from baseline in GSR of 1 (patients with cGVHD; Cohort 3 400 mg QD): 1 (5%) participants
Maximal improvement from baseline in GSR of 3 (patients with cGVHD; Cohort 3 400 mg QD): 0 (0%) participants
Maximal improvement from baseline in GSR of −1 (patients with cGVHD; Cohort 3 400 mg QD): 4 (19%) participants
Maximal improvement from baseline in GSR of −2 (patients with cGVHD; Cohort 3 400 mg QD): 4 (19%) participants
Maximal improvement from baseline in GSR of −3 (patients with cGVHD; Cohort 3 400 mg QD): 1 (5%) participants
Maximal improvement from baseline in GSR of −4 (patients with cGVHD; Cohort 3 400 mg QD): 3 (14%) participants
Maximal improvement from baseline in GSR of −5 (patients with cGVHD; Cohort 3 400 mg QD): 0 (0%) participants
Maximal improvement from baseline in GSR of −6 (patients with cGVHD; Cohort 3 400 mg QD): 0 (0%) participants
Maximal improvement from baseline in GSR of −7 (patients with cGVHD; Cohort 3 400 mg QD): 2 (10%) participants
Maximal improvement in self-reported symptom activity of 0 (patients with cGVHD; Cohort 3 400 mg QD): 0 participants
Maximal improvement in self-reported symptom activity of 1 (patients with cGVHD; Cohort 3 400 mg QD): 1 participants
Maximal improvement in self-reported symptom activity of 2 (patients with cGVHD; Cohort 3 400 mg QD): 2 participants
Maximal improvement in self-reported symptom activity of 4 (patients with cGVHD; Cohort 3 400 mg QD): 0 participants
Maximal improvement in self-reported symptom activity of −1 (patients with cGVHD; Cohort 3 400 mg QD): 2 participants
Maximal improvement in self-reported symptom activity of −2 (patients with cGVHD; Cohort 3 400 mg QD): 2 participants
Maximal improvement in self-reported symptom activity of −3 (patients with cGVHD; Cohort 3 400 mg QD): 2 participants
Maximal improvement in self-reported symptom activity of −4 (patients with cGVHD; Cohort 3 400 mg QD): 1 participants
Maximal improvement in self-reported symptom activity of −5 (patients with cGVHD; Cohort 3 400 mg QD): 2 participants
Maximal improvement in self-reported symptom activity of −6 (patients with cGVHD; Cohort 3 400 mg QD): 4 participants
Maximal improvement in self-reported symptom activity of −7 (patients with cGVHD; Cohort 3 400 mg QD): 0 participants
Maximal improvement in self-reported symptom activity of −8 (patients with cGVHD; Cohort 3 400 mg QD): 1 participants
Subjects with clinically meaningful improvement (10-point reduction) in LSS lung score (subjects with BOS; 59 subjects): 68%
Clinically meaningful improvement in LSS lung score (subjects with BOS; baseline NIH lung score 1): 66%
Clinically meaningful improvement in LSS lung score (subjects with BOS; baseline NIH lung score 2): 61%
Clinically meaningful improvement in LSS lung score (subjects with BOS; baseline NIH lung score 3): 100%
Clinically meaningful improvement in LSS lung score (subjects with BOS; non-responders): 68% and 67.5%
Clinically meaningful improvement in LSS lung score (subjects with BOS; subjects with 35% best improvement in % FEV1): 61%
Clinically meaningful improvement in LSS lung score (subjects with BOS; subjects with <5% best improvement in % FEV1): 69%
Subjects with at least 1 respiratory infection (any grade) on treatment ([1]; 59 BOS subjects): 53%
2-year overall survival ([1]; 95% CI: 70, 90): 82%
